According to ChEMBL document CHEMBL1201862, “PubChem BioAssay data set” (2004):
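Grown in 96-well plates, cells were treated for 48 hours with each compound at five concentrations. Insufficient inhibition: endpoint recorded as highest concentration tested. GI50 = concentration required for 50% inhibition of growth.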 The source made the active and inactive calls. Cut-off read from the data, not from the text of the source: active = GI50 up to about 1.1 µM and inactive = higher.

What was measured:
Test in all cases: DTP human tumour cell line panel, 48 h
NCI-H226 = tested on: NCI-H226
786-0 = tested on: 786-0
NCI/ADR-RES = tested on: NCI/ADR-RES
SK-MEL-5 = tested on: SK-MEL-5
LOX IMVI = tested on: LOX IMVI
HL-60 = tested on: HL-60
Hs-578T = tested on: Hs-578T
SW-620 = tested on: SW-620
SR = tested on: SR
OVCAR-5 = tested on: OVCAR-5
CAKI-1 = tested on: CAKI-1
Malme-3M = tested on: Malme-3M
UACC-62 = tested on: UACC-62
U-251 = tested on: U-251
MDA-MB-231 = tested on: MDA-MB-231
DU-145 = tested on: DU-145
TK-10 = tested on: TK-10
HCT-116 = tested on: HCT-116
M14 = tested on: M14
CCRF-CEM = tested on: CCRF-CEM
HOP-92 = tested on: HOP-92
OVCAR-8 = tested on: OVCAR-8
MDA-N = tested on: MDA-N
SNB-75 = tested on: SNB-75
MDA-MB-435 = tested on: MDA-MB-435
MCF7 = tested on: MCF7
NCI-H23 = tested on: NCI-H23
ACHN = tested on: ACHN
HCT-15 = tested on: HCT-15
MOLT-4 = tested on: MOLT-4
NCI-H522 = tested on: NCI-H522
SK-MEL-2 = tested on: SK-MEL-2
BT-549 = tested on: BT-549
EKVX = tested on: EKVX
SNB-19 = tested on: SNB-19
SN12C = tested on: SN12C
KM12 = tested on: KM12
T47D = tested on: T47D
OVCAR-3 = tested on: OVCAR-3
PC-3 = tested on: PC-3
COLO 205 = tested on: COLO 205
HOP-62 = tested on: HOP-62
SK-MEL-28 = tested on: SK-MEL-28
NCI-H460 = tested on: NCI-H460
RXF 393 = tested on: RXF 393
OVCAR-4 = tested on: OVCAR-4
UO-31 = tested on: UO-31
SF-268 = tested on: SF-268
A549 = tested on: A549
RPMI-8226 = tested on: RPMI-8226
IGROV-1 = tested on: IGROV-1
SF-295 = tested on: SF-295
SF-539 = tested on: SF-539
K562 = tested on: K562
A498 = tested on: A498
HT-29 = tested on: HT-29
HCC 2998 = tested on: HCC 2998
UACC-257 = tested on: UACC-257
SK-OV-3 = tested on: SK-OV-3

For `OC1[C@H](O)CN(OCc2ccccc2)C[C@@H]1O` (stereo partly drawn), the GI50 (NCI-H226) was > 100 µM (inactive), the GI50 (786-0) was > 100 µM (inactive) and the GI50 (NCI/ADR-RES) was > 100 µM (inactive). The GI50 (SK-MEL-5) was > 100 µM (inactive), the GI50 (LOX IMVI) was > 100 µM (inactive) and the GI50 (HL-60) was > 100 µM (inactive). The GI50 (Hs-578T) was > 100 µM (inactive), the GI50 (SW-620) was > 100 µM (inactive) and the GI50 (SR) was > 100 µM (inactive). The GI50 (OVCAR-5) was > 100 µM (inactive), the GI50 (CAKI-1) was > 100 µM (inactive) and the GI50 (Malme-3M) was > 100 µM (inactive). For the same molecule, the GI50 (UACC-62) was > 100 µM (inactive), the GI50 (U-251) was > 100 µM (inactive) and the GI50 (MDA-MB-231) was > 100 µM (inactive). For the same molecule, the GI50 (DU-145) was > 100 µM (inactive), the GI50 (TK-10) was > 100 µM (inactive) and the GI50 (HCT-116) was > 100 µM (inactive). For the same molecule, the GI50 (M14) was > 100 µM (inactive), the GI50 (CCRF-CEM) was > 100 µM (inactive) and the GI50 (HOP-92) was > 100 µM (inactive). For the same molecule, the GI50 (OVCAR-8) was > 100 µM (inactive), the GI50 (MDA-N) was > 100 µM (inactive) and the GI50 (SNB-75) was > 100 µM (inactive). The GI50 (MDA-MB-435) was > 100 µM (inactive), the GI50 (MCF7) was > 100 µM (inactive) and the GI50 (NCI-H23) was > 100 µM (inactive). The GI50 (ACHN) was > 100 µM (inactive), the GI50 (HCT-15) was greater than 100 µM and the GI50 (MOLT-4) was > 100 µM (inactive). The GI50 (NCI-H522) was > 100 µM (inactive), the GI50 (SK-MEL-2) was > 100 µM (inactive) and the GI50 (BT-549) was > 100 µM (inactive). The GI50 (EKVX) was > 100 µM (inactive), the GI50 (SNB-19) was > 100 µM (inactive) and the GI50 (SN12C) was > 100 µM (inactive). The GI50 (KM12) was > 100 µM (inactive), the GI50 (T47D) was > 100 µM (inactive) and the GI50 (OVCAR-3) was > 100 µM (inactive). The GI50 (PC-3) was > 100 µM (inactive), the GI50 (COLO 205) was > 100 µM (inactive) and the GI50 (HOP-62) was > 100 µM (inactive). For the same molecule, the GI50 (SK-MEL-28) was > 100 µM (inactive), the GI50 (NCI-H460) was > 100 µM (inactive) and the GI50 (RXF 393) was > 100 µM (inactive). For the same molecule, the GI50 (OVCAR-4) was > 100 µM (inactive), the GI50 (UO-31) was > 100 µM (inactive) and the GI50 (SF-268) was > 100 µM (inactive). For the same molecule, the GI50 (A549) was > 100 µM (inactive), the GI50 (RPMI-8226) was > 100 µM (inactive) and the GI50 (IGROV-1) was > 100 µM (inactive). For the same molecule, the GI50 (SF-295) was > 100 µM (inactive), the GI50 (SF-539) was > 100 µM (inactive) and the GI50 (K562) was > 100 µM (inactive). For the same molecule, the GI50 (A498) was > 100 µM (inactive), the GI50 (HT-29) was > 100 µM (inactive) and the GI50 (HCC 2998) was > 100 µM (inactive). For the same molecule, the GI50 (UACC-257) was > 100 µM (inactive).
With `COc1ccc2c(c1)nc1n2C(c2c(F)cccc2F)SC1` (stereo not drawn) the GI50 (NCI-H226) was 62.7 µM (inactive), the GI50 (786-0) was 48.2 µM (inactive) and the GI50 (NCI/ADR-RES) was 38.2 µM (inactive). The GI50 (SK-MEL-5) was 24.2 µM (inactive), the GI50 (LOX IMVI) was 45.6 µM (inactive) and the GI50 (HL-60) was 27.9 µM (inactive). For the same molecule, the GI50 (Hs-578T) was 35.2 µM (inactive), the GI50 (SW-620) was 60.5 µM (inactive) and the GI50 (SR) was 13.5 µM (inactive). The GI50 (OVCAR-5) was > 100 µM (inactive), the GI50 (CAKI-1) was > 100 µM (inactive) and the GI50 (SK-OV-3) was 40.8 µM (inactive). For the same molecule, the GI50 (UACC-62) was 29.1 µM (inactive), the GI50 (U-251) was 55.7 µM (inactive) and the GI50 (MDA-MB-231) was > 100 µM (inactive). The GI50 (DU-145) was > 100 µM (inactive), the GI50 (TK-10) was 94.6 µM (inactive) and the GI50 (HCT-116) was 31.5 µM (inactive). For the same molecule, the GI50 (M14) was 56.9 µM (inactive), the GI50 (CCRF-CEM) was 47.5 µM (inactive) and the GI50 (HOP-92) was 76 µM (inactive). For the same molecule, the GI50 (OVCAR-8) was 83.8 µM (inactive), the GI50 (MDA-N) was 40 µM (inactive) and the GI50 (SNB-75) was 39.3 µM (inactive). The GI50 (MDA-MB-435) was 26.2 µM (inactive), the GI50 (MCF7) was 38.3 µM (inactive) and the GI50 (NCI-H23) was 29 µM (inactive). The GI50 (ACHN) was > 100 µM (inactive), the GI50 (HCT-15) was 35.2 µM and the GI50 (MOLT-4) was 35.2 µM (inactive). The GI50 (SK-MEL-2) was 31.6 µM (inactive), the GI50 (BT-549) was 59 µM (inactive) and the GI50 (EKVX) was 36.1 µM (inactive). For the same molecule, the GI50 (SNB-19) was 21.4 µM (inactive), the GI50 (SN12C) was > 100 µM (inactive) and the GI50 (KM12) was 25 µM (inactive). For the same molecule, the GI50 (T47D) was 71.6 µM (inactive), the GI50 (OVCAR-3) was 62.8 µM (inactive) and the GI50 (PC-3) was 27.8 µM (inactive). For the same molecule, the GI50 (COLO 205) was 40.6 µM (inactive), the GI50 (HOP-62) was 76.4 µM (inactive) and the GI50 (SK-MEL-28) was > 100 µM (inactive). For the same molecule, the GI50 (NCI-H460) was 39.4 µM (inactive), the GI50 (RXF 393) was 53.7 µM (inactive) and the GI50 (OVCAR-4) was > 100 µM (inactive). The GI50 (UO-31) was 56 µM (inactive), the GI50 (SF-268) was 32.2 µM (inactive) and the GI50 (A549) was 34.8 µM (inactive). The GI50 (RPMI-8226) was 30.6 µM (inactive), the GI50 (IGROV-1) was 47.5 µM (inactive) and the GI50 (SF-295) was 32.4 µM (inactive). For the same molecule, the GI50 (SF-539) was 47.3 µM (inactive), the GI50 (K562) was 43.8 µM (inactive) and the GI50 (A498) was > 100 µM (inactive). For the same molecule, the GI50 (HT-29) was 47.3 µM (inactive), the GI50 (HCC 2998) was 55.1 µM (inactive) and the GI50 (UACC-257) was 45.7 µM (inactive).
In the case of `CC(=O)N(C(=O)CC(=O)N/N=C\c1ccc(Br)c(N(CCC#N)CCC#N)c1)c1ccc(Cl)cc1`, the GI50 (NCI-H226) is reported as 36.1 µM (inactive), the GI50 (786-0) is reported as 45.9 µM (inactive) and the GI50 (NCI/ADR-RES) is reported as 52.8 µM (inactive). The GI50 (LOX IMVI) was 33.9 µM (inactive), the GI50 (HL-60) was 35.4 µM (inactive) and the GI50 (Hs-578T) was 52.5 µM (inactive). For the same molecule, the GI50 (SW-620) was 93.3 µM (inactive), the GI50 (SR) was 44.2 µM (inactive) and the GI50 (OVCAR-5) was 11.8 µM (inactive). For the same molecule, the GI50 (CAKI-1) was 44.7 µM (inactive), the GI50 (SK-OV-3) was 49.7 µM (inactive) and the GI50 (Malme-3M) was 51.6 µM (inactive). The GI50 (UACC-62) was 7.55 µM (inactive), the GI50 (U-251) was 46.3 µM (inactive) and the GI50 (MDA-MB-231) was 10.6 µM (inactive). For the same molecule, the GI50 (DU-145) was 30.2 µM (inactive), the GI50 (TK-10) was 27.8 µM (inactive) and the GI50 (HCT-116) was 62.4 µM (inactive). The GI50 (M14) was 34.5 µM (inactive), the GI50 (CCRF-CEM) was > 100 µM (inactive) and the GI50 (HOP-92) was 30.2 µM (inactive). For the same molecule, the GI50 (OVCAR-8) was 54.5 µM (inactive), the GI50 (MDA-N) was 41.3 µM (inactive) and the GI50 (SNB-75) was 54.2 µM (inactive). For the same molecule, the GI50 (MDA-MB-435) was 27.5 µM (inactive), the GI50 (MCF7) was 52.7 µM (inactive) and the GI50 (NCI-H23) was 86.1 µM (inactive). For the same molecule, the GI50 (ACHN) was 14.5 µM (inactive), the GI50 (HCT-15) was 14 µM and the GI50 (MOLT-4) was 42.6 µM (inactive). For the same molecule, the GI50 (BT-549) was 58.9 µM (inactive), the GI50 (EKVX) was 60.5 µM (inactive) and the GI50 (SNB-19) was 25.9 µM (inactive). The GI50 (SN12C) was 7 µM (inactive), the GI50 (KM12) was 14.1 µM (inactive) and the GI50 (T47D) was 43.3 µM (inactive). For the same molecule, the GI50 (OVCAR-3) was 47.9 µM (inactive), the GI50 (PC-3) was 96.6 µM (inactive) and the GI50 (COLO 205) was 69.8 µM (inactive). The GI50 (HOP-62) was 44.7 µM (inactive), the GI50 (SK-MEL-28) was > 100 µM (inactive) and the GI50 (NCI-H460) was 74.5 µM (inactive). For the same molecule, the GI50 (RXF 393) was > 100 µM (inactive), the GI50 (UO-31) was 24.8 µM (inactive) and the GI50 (SF-268) was > 100 µM (inactive). The GI50 (A549) was 27.4 µM (inactive), the GI50 (RPMI-8226) was 81.8 µM (inactive) and the GI50 (IGROV-1) was 21.4 µM (inactive). For the same molecule, the GI50 (SF-295) was 22.7 µM (inactive), the GI50 (SF-539) was 71.4 µM (inactive) and the GI50 (K562) was 60 µM (inactive). For the same molecule, the GI50 (A498) was 33.4 µM (inactive) and the GI50 (HCC 2998) was 31 µM (inactive).
